# Columns and labels:
# ATX = ATX (Homo sapiens, UniProt Q13822); test: Enzyme activity screening in vitro with LPC as substrate (Amplex Red fluorescence); assay type: biochemical; conditions: inhibitory activity against ATX
# Excerpt: Analysis In Vitro: LPC was Used as Substrate for Screening Enzyme Activity
# Principle: Lysophosphatidylcholine (LPC) as substrate is hydrolyzed by using the activity of lysoPLD enzyme, to produce lysophosphatidic acid (LPA) and choline, which is oxidized to produce H2O2 under the action of choline oxidase. In presence of horse radish peroxidase (HPR), Amplex Red reagent is reacted with H2O2 in a quantitative chemistry ratio of 1 to 1, to produce strong fluorescence products, which are detected by a fluorescent quantitative test.
# 20 μl of the above mixed solution 1 was added to each hole of an experiment board, […]. The compounds diluted with DMSO were transferred into an experiment board with Echo550. The reaction buffer solution was used for preparing a mixed solution 2 of […] LPC and 400 μM Amplex Red in a final concentration. 20 μl of the above mixed solution 2 was added to each hole of the experiment board. After addition, the experiment board was shook for 30 seconds on a shaker, and incubated for 30 minutes. Envision was used to read the fluorescence signals with an exciting light at 530 nm and emitted light at 590 nm.
# [1] = Pharmacokinetics test in mice; assay type: in vivo; conditions: male SD mice; for F: absolute bioavailability, oral 5 mg/kg vs intravenous 1 mg/kg; for AUC / half-life: mouse, plasma
# Excerpt: Pharmacokinetics Test in Mice
# Male SD mice were selected for pharmacokinetics test study, plasma concentration at different time points were quantitatively determined by LC/MS/MS method after the mice were intravenously injected and orally administrated with the compounds to be tested, thereby evaluating pharmacokinetics characteristic of the compounds to be tested in SD mice.
# SD mice (free food and drink, 6 to 8 weeks old) were intravenously administrated via a foot injection with a clear solution of the compounds to be tested, alternatively, SD mice (free food and drink, 6 to 8 week old) were intragastrically administrated with a suspension of the compounds to be tested. Blood samples were collected from the tail veins of the mice 0.083, 0.25, 0.5, 1, 2, 4, 6, 8, 10, and 24 hours after administration, and each sampling was 0.15 mL. All collected blood samples were placed into centrifuge tubes with EDTA-K2, turned upside and down to mix the anticoagulant with the blood well. The plasma was separated by centrifugation at 1500 g for 10 min at 4° C. within […]. The plasma sample was transferred into a new centrifuge tube and stored at −90° C. to −60° C. until the analysis was performed. LC-MS/MS was used to measure the blood concentration of the compounds to be tested of the present disclosure, and the pharmacokinetic parameters, as well as absolute bioavailability, were calculated by a non-compartment model in Pharsight Phoenix 8.0 software, as shown in Table 2.
# [2] = Intravenous injection (1 mg/kg)
structure (smiles),measurement,setting,value
"CCc1nc2sc(C3CCN(CC(=O)NCC(F)F)CC3)cn2c1N(CC)c1nc(-c2ccc(F)cc2)c(C#N)s1 [Embodiment 11, 2-(4-(5-((5-cyano-4-(4-fluorophenyl)thiazol-2-yl)(ethyl)amino)-6-ethylimidazo[2,1-b]thiazol-2-yl)piperidin-1-yl)-N-(2,2-difluoroethyl)acetamide]",IC50,ATX,0.01 to 100 nM
same,F,[1],42%
same,AUC,[1]; [2],907 ng·h/mL
same,half-life,[1]; [2],4.69 h
same,AUC,[1]; Oral administration (5 mg/kg),1730 ng·h/mL
same,half-life,[1]; Oral administration (5 mg/kg),4.4 h
"CCc1nc2sc(C3CCN(CC(=O)NC4COC4)CC3)cn2c1N(CC)c1nc(-c2ccc(F)cc2)c(C#N)s1 [Embodiment 21, 2-(4-(5-((5-cyano-4-(4-fluorophenyl)thiazol-2-yl)(ethyl)amino)-6-ethylimidazo[2,1-b]thiazol-2-yl)piperidin-1-yl)-N-(3-oxacyclobutyl)acetamide]",IC50,ATX,0.01 to 100 nM
same,F,[1],114%
same,AUC,[1]; [2],1040 ng·h/mL
same,half-life,[1]; [2],3.32 h
same,AUC,[1]; Oral administration (5 mg/kg),5500 ng·h/mL
same,half-life,[1]; Oral administration (5 mg/kg),2.61 h
"CCc1nc2sc(C3CCN(CC(=O)N4CCOCC4)CC3)cn2c1N(CC)c1nc(-c2ccc(F)cc2)c(C#N)s1 [Embodiment 22, 2-(ethyl(6-ethyl-2-(1-(2-morpholino-2-oxoethyl)piperidin-4-yl)imidazo[2,1-b]thiazol-5-yl)amino)-4-(4-fluorophenyl)thiazole-5-carbonitrile]",IC50,ATX,0.01 to 100 nM
same,F,[1],39%
same,AUC,[1]; [2],649 ng·h/mL
same,half-life,[1]; [2],4.56 h
same,AUC,[1]; Oral administration (5 mg/kg),1260 ng·h/mL
same,half-life,[1]; Oral administration (5 mg/kg),4.19 h
"CCc1nc2sc(C3CCN(CC(=O)NC4CCOCC4)CC3)cn2c1N(CC)c1nc(-c2ccc(F)cc2)c(C#N)s1 [Embodiment 23, 2-(4-(5-((5-cyano-4-(4-fluorophenyl)thiazol-2-yl)(ethyl)amino)-6-ethylimidazo[2,1-b]thiazol-2-yl)piperidin-1-yl)-N-(tetrahydro-2H-pyran-4-yl)acetamide]",IC50,ATX,0.01 to 100 nM
same,F,[1],70%
same,AUC,[1]; [2],1180 ng·h/mL
same,half-life,[1]; [2],4.18 h
same,AUC,[1]; Oral administration (5 mg/kg),4190 ng·h/mL
same,half-life,[1]; Oral administration (5 mg/kg),3.93 h
"CCc1nc2sc(C3CCN(CC(=O)N4CC(O)C4)CC3)cn2c1N(c1nc(-c2ccc(F)cc2)c(C#N)s1)C1CC1 [Embodiment 24, 2-(cyclopropyl(6-ethyl-2-(1-(2-(3-hydroxyazetidin-1-yl)-2-oxoethyl)piperidin-4-yl)imidazo[2,1-b]thiazol-5-yl)amino)-4-(4-fluorophenyl)thiazole-5-carbonitrile]",IC50,ATX,100 to 500 nM
same,F,[1],43%
same,AUC,[1]; [2],1170 ng·h/mL
same,half-life,[1]; [2],2.14 h
same,AUC,[1]; Oral administration (5 mg/kg),2520 ng·h/mL
same,half-life,[1]; Oral administration (5 mg/kg),2.23 h
"CCc1nc2sc(C3CCN(CC(=O)N4CC(O)C4)CC3)cn2c1N(c1nc(-c2ccc(F)cc2)c(C#N)s1)C(C)C [Embodiment 25, 2-((6-ethyl-2-(1-(2-(3-hydroxyazetidin-1-yl)-2-oxoethyl)piperidin-4-yl)imidazo[2,1-b]thiazol-5-yl)(isopropyl)amino)-4-(4-fluorophenyl)thiazole-5-carbonitrile]",IC50,ATX,0.01 to 100 nM
same,F,[1],55%
same,AUC,[1]; [2],732 ng·h/mL
same,half-life,[1]; [2],3.11 h
same,AUC,[1]; Oral administration (5 mg/kg),1900 ng·h/mL
same,half-life,[1]; Oral administration (5 mg/kg),3.83 h

# From patent US20240002401A1, “IMIDAZOTHIAZOLE COMPOUNDS, PHARMACEUTICAL COMPOSITIONS, AND USES THEREOF” (GUANGZHOU HENOVCOM BIOSCIENCE CO., LTD., priority 2020, published 2024)
